Test results reported in publication PMC6934184, “Selective DNA-PKcs inhibition extends the therapeutic index of localized radiotherapy and chemotherapy” (The Journal of Clinical Investigation, 2019).

Target: T1, PAK2 (PAK65) (Homo sapiens, UniProt Q13177)
T1 construct: purchased Thermo Fisher Scientific (Life Technologies) SelectScreen
Test: SelectScreen Z'LYTE
Type: biochemical
Outline: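 Percent values come from Thermo SelectScreen profiling of NU5455, combining activity and binding assays. CSF1R was run in Z'LYTE format at Km app ATP, and CAMK1 in Adapta format with ATP listed at 10.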

T1 sequence (Q13177 whole entry): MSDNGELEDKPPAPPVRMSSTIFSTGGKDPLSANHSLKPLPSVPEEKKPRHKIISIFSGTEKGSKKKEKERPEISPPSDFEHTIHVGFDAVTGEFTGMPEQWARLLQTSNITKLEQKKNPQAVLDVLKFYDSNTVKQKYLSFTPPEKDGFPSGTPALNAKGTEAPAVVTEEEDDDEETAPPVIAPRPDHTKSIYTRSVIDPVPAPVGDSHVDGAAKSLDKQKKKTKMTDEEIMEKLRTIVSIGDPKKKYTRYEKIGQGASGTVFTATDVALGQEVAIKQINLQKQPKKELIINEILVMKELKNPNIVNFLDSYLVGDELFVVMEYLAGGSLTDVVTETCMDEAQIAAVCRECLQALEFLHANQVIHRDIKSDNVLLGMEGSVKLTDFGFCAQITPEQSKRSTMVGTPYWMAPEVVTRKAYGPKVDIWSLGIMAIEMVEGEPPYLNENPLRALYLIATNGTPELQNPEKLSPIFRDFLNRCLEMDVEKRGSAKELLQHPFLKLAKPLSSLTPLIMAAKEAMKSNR

Work on `CN(C(=O)CN1CCOCC1)c1ccc2sc3c(-c4cccc5c(=O)cc(N6CC7CCC(C6)O7)oc45)cccc3c2c1` [NU5455] yielded an inhibition at 1 µM of 4%.
